Values quoted from earlier work as cited in US20070254070A1, “Encapsulating Plant Extracts Adsorbed and/or Absorbed in Precipitated Silica” (AXISS FRANCE S.A.S., priority 2004, published 2007).

Tested on: bacteria

Cc1ccc(C(C)C)cc1O [carvacrol]
action on bacteria: bactericidal
